According to EP0435381B1, “Antipicornaviral pyridazinamines” (priority 1989, dated 1991):
≈ marks a conversion by molar mass, not a printed value.

How the values were obtained:
[1] = system: HRV- 2,-29,-39,-85,-9,-15,-51, -59,-63,-89,-41; assay: Picornavirus Minimal Inhibitory Concentration Test (cytopathic effect reduction assay), first panel of rhinoviruses; assay type: cell-based; conditions: Human rhinovirus sp., HeLa, read-out: Med₁
Protocol: (§1) Example 24: Picornavirus Minimal Inhibitory Concentration Test,
(§2) The Minimal Inhibitory Concentration of the compounds of the present invention against the Human Rhinovirus strains (HRV) -2,-9,-14,-15,-29,-39,-41,-42,-45,-51, -59,-63,-70,-72,-85,-86 and -89 was determined by a standard cytopathic effect reduction assay as follows. To each of the ninety six (96) wells of a microtiter 96 well tissue culture plate there was added 60 µl of an Ohio Hela cell maintenance medium [Eagle's Basal medium supplemented with 5% Foetal Calf Serum (FCS)]. To two wells there was added 60 µl of an appropriate starting dilution of a compound of formula (I) and two-fold dilutions were made to cover a wide range of compound concentrations. Subsequently there were added 120 µl of an infectious solution of virus in Eagle's Basal Medium with 2% Hepes buffer, 2% FCS and 30 mM MgCl₂ to all wells except cell and compound controls. Said infectious virus solution has a TCID₅₀-value (Tissue Culture Infectious Dose) of about 100.
(§3) The TCID₅₀-value is the dose of viruses which initiates a cytopathic effect in 50% of the inoculated cells. 150 µl of the thus obtained virus-compound mixtures were then transferred to microtitre plates with subconfluent Ohio Hela Cells, grown in 100 µl of maintenance medium. Appropriate virus controls, cell controls and compound controls were included in each test. Plates were incubated for 3 to 5 days at 33°C in 5% CO₂ atmosphere. […] The IC₅₀-value for each virus-compound series was taken as the concentration in ng/ml that protected 50% of the cells from cytopathic effects with respect to the untreated controls. In the standard test procedure, the compounds were tested against two panels of rhinoviruses, a first panel consisting of serotypes HRV- 2,-29,-39,-85,-9,-15,-51, -59,-63,-89,-41 and the other panel consisting of HRV-42,-45,-14,-70,-72 and -86.
(§4) The IC₅₀-value for each rhinovirus serotype was determined, and the efficacy of each compound was determined in terms of the Med₁-value and Med₂-value, which is the medium value of the IC₅₀-value of all serotypes from the first and second panel respectively. The following table gives the testing results with the compounds of the invention.

[2] = system: HRV-42,-45,-14,-70,-72 and -86; assay: Picornavirus Minimal Inhibitory Concentration Test (cytopathic effect reduction assay), second panel of rhinoviruses; assay type: cell-based; conditions: Human rhinovirus sp., HRV42; medium value of the IC50-values of all serotypes of the second panel; Ohio Hela cells, 3 to 5 days at 33°C; concentration protecting 50% of the cells from cytopathic effects; read-out: Med₂
Protocol: as §1, §2, §3, §4

Row | SMILES | IC50 [1] | IC50 [2]
1 | CCCc1noc(-c2ccc(OCCC3CCN(c4ccc(C)nn4)CC3)cc2)n1 [compound 13] | 0.0068 µg/mL (≈ 0.0167 µM) | 0.154 µg/mL (≈ 0.378 µM)
2 | CCCc1nc(-c2ccc(OCCC3CCN(c4ccc(C)nn4)CC3)cc2)no1 [compound 27] | 0.006 µg/mL (≈ 0.0147 µM) | 0.122 µg/mL (≈ 0.299 µM)
3 | CCc1nc(-c2ccc(OCCC3CCN(c4ccc(C)nn4)CC3)cc2)co1 [compound 21, 3-[4-[2-[4-(2-ethyl-4-oxazolyl)phenoxy]ethyl]-1-piperidinyl]-6-methylpyridazine] | < 0.0005 µg/mL | 0.02 µg/mL (≈ 0.051 µM)
4 | CCc1nc(-c2ccc(OCCC3CCN(c4ccc(C)nn4)CC3)cc2)cs1 [compound 26] | 0.005 µg/mL (≈ 0.0122 µM) | > 0.125 µg/mL
5 | CCc1noc(-c2ccc(OCCN3CCN(c4ccc(Cl)nn4)CC3)cc2)n1 [compound 38] | 0.0024 µg/mL (≈ 0.00578 µM) | 0.072 µg/mL (≈ 0.174 µM)
6 | CCc1csc(-c2ccc(OCCC3CCN(c4ccc(C)nn4)CC3)cc2)n1 [compound 22, 3-[4-[2-[4-(4-ethyl-2-thiazolyl)phenoxy]ethyl]-1-piperidinyl]-6-methylpyridazine] | 0.001 µg/mL (≈ 0.00245 µM) | 0.203 µg/mL (≈ 0.497 µM)
7 | CCc1noc(-c2ccc(OCCC3CCN(c4ccc(C)nn4)C3)cc2)n1 (stereo not shown) [compound 45] | 0.006 µg/mL (≈ 0.0158 µM) | 0.065 µg/mL (≈ 0.171 µM)
8 | CCc1nc(-c2ccc(OCCC3CCN(c4ccc(C)nn4)C3)cc2)no1 (stereo not shown) [compound 46] | 0.005 µg/mL (≈ 0.0132 µM) | 0.04 µg/mL (≈ 0.105 µM)
9 | CCc1nnc(-c2ccc(OCCC3CCN(c4ccc(C)nn4)CC3)cc2)o1 [compound 1] | 0.006 µg/mL (≈ 0.0152 µM) | 0.044 µg/mL (≈ 0.112 µM)
10 | CCc1noc(-c2ccc(OCCC3CCN(c4ccc(C)nn4)CC3)cc2)n1 [compound 5, 3-[4-[2-[4-(3-ethyl-1,2,4-oxadiazol-5-yl)phenoxy]ethyl]-1-piperidinyl]-6-methylpyridazine] | 0.0029 µg/mL (≈ 0.00737 µM) | 0.098 µg/mL (≈ 0.249 µM)
11 | CCc1noc(-c2ccc(OCCC3CCN(c4ccc(Cl)nn4)C3)cc2)n1 (stereo not shown) [compound 44] | 0.014 µg/mL (≈ 0.035 µM) | 0.166 µg/mL (≈ 0.415 µM)
12 | Cc1ccc(N2CCC(CCOc3ccc(-c4noc(C)n4)cc3)CC2)nn1 [compound 25] | 0.008 µg/mL (≈ 0.0211 µM) | 0.105 µg/mL (≈ 0.277 µM)
13 | CCc1noc(-c2ccc(OCC3CCN(c4ccc(C)nn4)CC3)cc2)n1 [compound 16] | 0.002 µg/mL (≈ 0.00527 µM) | 0.083 µg/mL (≈ 0.219 µM)
14 | CCCc1nc(-c2ccc(OCCC3CCN(c4ccc(C)nn4)CC3)cc2)co1 [compound 36] | 0.007 µg/mL (≈ 0.0172 µM) | > 0.125 µg/mL
15 | Cc1ccc(N2CCC(CCOc3ccc(-c4nc(C)no4)cc3)CC2)nn1 [compound 9] | 0.004 µg/mL (≈ 0.0105 µM) | 0.018 µg/mL (≈ 0.0474 µM)
16 | CCc1nc(-c2ccc(OCCC3CCN(c4ccc(C)nn4)CC3)cc2)no1 [compound 6, 3-[4-[2-[4-(5-ethyl-1,2,4-oxadiazol-3-yl)phenoxy]ethyl]-1-piperidinyl]-6-methylpyridazine] | 0.0013 µg/mL (≈ 0.0033 µM) | 0.047 µg/mL (≈ 0.119 µM)
17 | CCCCc1noc(-c2ccc(OCCC3CCN(c4ccc(C)nn4)CC3)cc2)n1 [compound 11] | 0.006 µg/mL (≈ 0.0142 µM) | 0.175 µg/mL (≈ 0.415 µM)
